This note sets out measurements from US10889569B2, “Condensed ring group azacyclobutyl triazole derivative, preparation method therefor and use thereof in medicine” (Jiangsu Hengrui Medicine Co., Ltd., priority 2016, dated 2021).

What all share (type): cell-based
Assay [1] deals with human OTR (Homo sapiens, UniProt P30559). The experiment in a line: Inhibition activity on human OTR (Fluo-4 calcium assay, HEK293/human OTR stably transfected cells). The note with it: oxytocin 3 nM. How it is done:
The inhibition effect of the compounds of the present invention on the activity of human OTR protein expressed in HEK293/human OTR stably transfected cells was determined by the following experimental method:
The pcDNA3.1-hOTR plasmid was transferred into HEK293 cells with the Lipofectamine® 3000 transfection reagent; G418 was added on the next day to screen, and monoclonal cell lines were selected.
(§1) HEK293/human OTR stably transfected cells were inoculated in a 96-well plate with an inoculation density of 25,000 cells/well one day in advance. On the next day, a loading buffer containing Fluo-4 dye was formulated using the reagents in the Fluo-4 NW calcium assay kit, and the culture medium was then removed; 100 μl of the loading buffer containing Fluo-4 dye were added to each well, and the plate was incubated at 37° C. for 30 minutes. After that, the plate was moved to room temperature and equilibrated for 10 minutes. The compounds were formulated at 10^6, 10^5, 10^4, 10^3, 10^2 and 10^1 nM. 1 μl of the compounds in each concentration was added to each well, and the plate was incubated at room temperature for 10 minutes. 50 μl of oxytocin polypeptide (3 nM) were automatically added by the machine, and the values were immediately detected at 494/516 nM by the flexstation 3 microplate reader. IC50 values of the compounds were calculated by Graphpad prism software using fluorescence signals corresponding to different concentrations.
The inhibition activity of the compounds of the present invention on human OTR was determined by the above test, and the obtained IC50 values are shown in Table 1.

The target in assay [2] is human V1aR (Homo sapiens (Human), UniProt P37288). The experiment in a line: Inhibition activity on human V1aR (Fluo-4 calcium assay, HEK293/human V1aR stably transfected cells). The note with it: vasopressin 3 nM. How it is done:
The inhibition effect of the compounds of the present invention on the activity of human V1 aR protein expressed in HEK293/human V1aR stably transfected cells was determined by the following experimental method:
The pcDNA3.1-V1aR plasmid was transferred into HEK293 cells with the Lipofectamine® 3000 transfection reagent; G418 was added on the next day to screen, and monoclonal cell lines were selected.
as §1, with “V1aR” for “OTR”, “vasopressin” for “oxytocin”
The inhibition activity of the compounds of the present invention on human V1aR was determined by the above test, and the obtained IC50 values are shown in Table 2.

For assay [3], the target named is human V1bR (Homo sapiens, UniProt P47901). Put plainly: Inhibition activity on human V1bR (Fluo-4 calcium assay, HEK293/human V1bR pool cells). The note with it: vasopressin 3 nM. As for the experimental part:
The inhibition effect of the compounds of the present invention on the activity of human V1bR protein expressed in HEK293/human V1bR cells was determined by the following experimental method:
The pcDNA3.1-V1bR plasmid was transferred into HEK293 cells with the Lipofectamine® 3000 transfection reagent; G418 was added on the next day, and the HEK293/human V1bR pool cell lines were obtained.
as §1, with “HEK293/human V1bR pool” for “HEK293/human OTR stably transfected”, “formulated into” for “formulated at”, “of vasopressin” for “of oxytocin”
The inhibition activity of the compounds of the present invention on human V1bR was determined by the above test, and the obtained IC50 values are shown in Table 3.

Assay [4] concerns the target human V2R (Homo sapiens (Human), UniProt P30518). The experiment in a line: Inhibition activity on human V2R (cAMP HTRF assay, HEK293/human V2R pool cells). The settings on record: vasopressin. How it is done: The inhibition effect of the compounds of the present invention on the activity of human V2R protein expressed in HEK293/human V2R cells was determined by the following experimental method:
The pcDNA3.1-V2R plasmid was transferred into HEK293 cells with the Lipofectamine® 3000 transfection reagent; G418 was added on the next day, and the HEK293/human V2R pool cell lines were obtained.
HEK293/human V2R pool cells were dissociated with the cell dissociation solution (enzyme-free), thereby dissociating the cells from the cell culture dish into individual cells. Then the cell solution was blown well, and centrifuged to remove the supernatant. The cells were resuspended in the test buffer 1 (1×HBSS+20 mM HEPES+0.1% BSA) and counted. The cell density was adjusted to 1250 cells/5 μl, i.e., 2.5*10^5/ml.
The compounds were formulated into a series of concentrations of 20 mM, 6.67 mM, 2.22 mM, 0.74 mM, 0.25 mM, 0.08 mM, 27.4 μM, 9.14 μM, 3.05 μM, 1.02 μM, 0.34 μM and 0 μM (DMSO) with pure DMSO. The compounds were then diluted into a 4-fold working concentration solution with the test buffer 2 (test buffer 1+1 mM IBMX).
Agonist: 460 μM vasopressin was used as the mother liquor, which was formulated at 2 μM with DMSO, and then diluted to 0.5 nM with the test buffer 2.
Standards: The first point was 20 μl of a stock solution (2848 nM), which was diluted successively to a total of eleven concentrations in a 4-fold concentration gradient with the test buffer 1 from the second point.
1. The well-mixed cells were added to a 384-well plate (5 μl/well) without changing the tip.
2. The test compounds and positive compound formulated were added (2.5 μl/well), and the tips were changed.
3. The plate was centrifuged at 1000 rpm for 1 min, shaken for 30 sec to mix well, and incubated at room temperature for 30 min.
4. The standard curve wells were added with the test buffer 2 (5 μl/well).
5. The formulated agonist was added (2.5 μl/well), and the tips were changed; the plate was centrifuged at 1000 rpm for 1 min, shaken for 30 sec to mix well, and incubated at room temperature for 30 min.
6. cAMP-d2 (a component in the cAMP dynamic 2 kit) and Anti-cAMP-Eu-Cryptate (a component in the cAMP dynamic 2 kit) were formulated in the dark, which were then mixed well with cAMP lysate (a component in the cAMP dynamic 2 kit) in a ratio of 1:4. Each well was added with the formulated cAMP-d2 solution (5 μl/well), followed by addition of Anti-cAMP-Eu-Cryptate (5 μl/well). The plate was shaken for 30 sec to mix well, and incubated in the dark at room temperature for 1 h.
The HTRF Signals were Read by the PheraStar Multi-Function Microplate Reader.
The data in this test was processed using the data processing software Graphpad Prism.
The inhibition activity of the compounds of the present invention on human V2R was determined by the above test, and the IC50 values obtained are shown in Table 4.

human V1aR, sequence (P37288 whole entry): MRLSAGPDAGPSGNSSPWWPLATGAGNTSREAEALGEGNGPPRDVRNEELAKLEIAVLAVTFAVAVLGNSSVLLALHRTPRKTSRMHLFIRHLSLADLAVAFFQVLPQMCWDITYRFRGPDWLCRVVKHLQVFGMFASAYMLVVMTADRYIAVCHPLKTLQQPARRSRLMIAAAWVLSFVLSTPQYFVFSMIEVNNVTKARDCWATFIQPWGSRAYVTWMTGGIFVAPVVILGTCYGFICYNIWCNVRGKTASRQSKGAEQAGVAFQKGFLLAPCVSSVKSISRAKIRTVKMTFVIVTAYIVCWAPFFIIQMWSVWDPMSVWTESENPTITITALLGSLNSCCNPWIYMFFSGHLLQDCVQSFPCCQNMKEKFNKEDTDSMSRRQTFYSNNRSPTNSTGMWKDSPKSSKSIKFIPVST
human V2R, sequence (P30518 whole entry): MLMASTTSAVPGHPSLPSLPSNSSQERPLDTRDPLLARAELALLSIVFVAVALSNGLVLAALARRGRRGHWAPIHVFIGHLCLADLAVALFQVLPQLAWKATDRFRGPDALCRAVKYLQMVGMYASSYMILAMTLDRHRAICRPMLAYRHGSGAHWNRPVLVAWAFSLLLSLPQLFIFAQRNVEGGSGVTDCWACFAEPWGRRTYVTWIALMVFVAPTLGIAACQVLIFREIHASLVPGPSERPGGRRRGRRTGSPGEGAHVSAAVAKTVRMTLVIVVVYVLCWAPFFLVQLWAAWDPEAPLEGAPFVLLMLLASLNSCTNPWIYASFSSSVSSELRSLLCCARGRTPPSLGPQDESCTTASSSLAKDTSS

Broadly, the IC50 is the concentration that gives 50% inhibition. As for `COc1ccc(-n2c(C)nnc2N2CC(N3CCCc4cc(F)ccc43)C2)cn1` [Example 29, 6-Fluoro-1-(1-(4-(6-methoxypyridin-3-yl)-5-methyl-4H-1,2,4-triazol-3-yl)azetidin-3-yl)-1,2,3,4-tetrahydroquinoline], the IC50 in assay [1] stood at 0.064 µM; in assay [2], 6.2 µM; in assay [3] it was 95.1 µM; in assay [4], 12.1 µM.

Consider `COCc1nnc(N2CC(N3CCCc4cc(F)ccc43)C2)n1-c1ccc(OC)nc1` [Example 30, 6-Fluoro-1-(1-(5-(methoxymethyl)-4-(6-methoxypyridin-3-yl)-4H-1,2,4-triazol-3-yl)azetidin-3-yl)-1,2,3,4-tetrahydroquinoline], for which the IC50 was 0.004 µM in assay [1], 8.5 µM in assay [2], 20.7 µM in assay [3] and 6.7 µM in assay [4].

On to `CCOCc1nnc(N2CC(N3CCCc4cc(F)ccc43)C2)n1-c1ccc2c(c1)OCO2` [Example 27, 1-(1-(4-(Benzo[d][1,3]dioxolan-5-yl)-5-(ethoxymethyl)-4H-1,2,4-triazol-3-yl)azetidin-3-yl)-6-fluoro-1,2,3,4-tetrahydroquinoline], for which the values for the IC50 in assay [1], in assay [3] and in assay [4] were 0.008 µM, 13.9 µM and 9.1 µM, respectively.

Regarding `COCc1nnc(N2CC(c3cn(C)c4cc(F)ccc34)C2)n1-c1ccc(OC)nc1` [Example 14, 6-Fluoro-3-(1-(5-(methoxymethyl)-4-(6-methoxypyridin-3-yl)-4H-1,2,4-triazol-3-yl)azetidin-3-yl)-1-methyl-1H-indole], the IC50 amounted to 0.13 µM in assay [1], 10.9 µM in assay [2], 25.8 µM in assay [3] and 11.8 µM in assay [4].

For `CCOCc1nnc(N2CC(N3CCCc4cc(F)ccc43)C2)n1-c1ccc(OC)nc1` [Example 26, 1-(1-(5-(Ethoxymethyl)-4-(6-methoxypyridin-3-yl)-4H-1,2,4-triazol-3-yl)azetidin-3-yl)-6-fluoro-1,2,3,4-tetrahydroquinoline], the results for the IC50 in assay [1], in assay [3] and in assay [4] were 0.007 µM, 61 µM and 1.4 µM, respectively.

In the case of `COCc1nnc(N2CC(N3C(=O)COc4cc(F)ccc43)C2)n1-c1ccc(OC)nc1` [Example 18, 7-Fluoro-4-(1-(5-(methoxymethyl)-4-(6-methoxypyridin-3-yl)-4H-1,2,4-triazol-3-yl)azetidin-3-yl)-2H-benzo[b][1,4]oxazin-3(4H)-one], the IC50 in assay [2] was found to be 59.5 µM; in assay [3], 59.5 µM; in assay [4], 59.4 µM.

On to `COCc1nnc(N2CC(N3CCOc4cc(F)ccc43)C2)n1-c1ccc(OC)nc1` [Example 24, 7-Fluoro-4-(1-(5-(methoxymethyl)-4-(6-methoxypyridin-3-yl)-4H-1,2,4-triazol-3-yl)azetidin-3-yl)-3,4-dihydro-2H-benzo[b][1,4]oxazine], for which the IC50 in assay [1] was determined as 0.1 µM; in assay [2] it was 10.7 µM; in assay [3], 44.1 µM; in assay [4] it was 67.2 µM.

For `COCc1nnc(N2CC(c3csc4cc(F)ccc34)C2)n1-c1ccc(OC)nc1` [Example 9, 5-(3-(3-(6-Fluorobenzo[b]thiophen-3-yl)azetidin-1-yl)-5-(methoxymethyl)-4H-1,2,4-triazol-4-yl)-2-methoxypyridine], the IC50 in assay [1] turned out to be 0.04 µM; in assay [2] it was 1.2 µM; in assay [3] it was 42.7 µM; in assay [4], 12.5 µM.

For `COCc1nnc(N2CC(c3ccnc4cc(F)ccc34)C2)n1-c1ccc(OC)nc1` [Example 1, 7-Fluoro-4-(1-(5-(methoxymethyl)-4-(6-methoxypyridin-3-yl)-4H-1,2,4-triazol-3-yl)azetidin-3-yl)quinoline], the concentration for half-maximal inhibition (IC50) in assay [2] was 18.1 µM; in assay [3], 448 µM; in assay [4] it was > 100 µM.

For `COCc1nnc(N2CC(c3coc4cc(F)ccc34)C2)n1-c1ccc(OC)nc1` [Example 11, 5-(3-(3-(6-Fluorobenzofuran-3-yl)azetidin-1-yl)-5-(methoxymethyl)-4H-1,2,4-triazol-4-yl)-2-methoxypyridine], the IC50 is 0.221 µM in assay [1], 2.3 µM in assay [2] and 25.7 µM in assay [4].

`COCc1nnc(N2CC(N3CCc4cc(F)ccc43)C2)n1-c1ccc(OC)nc1` [Example 23, 5-Fluoro-1-(1-(5-(methoxymethyl)-4-(6-methoxypyridin-3-yl)-4H-1,2,4-triazol-3-yl)azetidin-3-yl)indoline] gave a half-inhibitory concentration (IC50) in assay [4] of 52 µM.

For the molecule `COc1ccc(-n2c(C)nnc2N2CC(N3CCOc4cc(F)ccc43)C2)cn1` [Example 32, 7-Fluoro-4-(1-(4-(6-methoxypyridin-3-yl)-5-methyl-4H-1,2,4-triazol-3-yl)azetidin-3-yl)-3,4-dihydro-2H-benzo[b][1,4]oxazine], the IC50 in assay [2] was 23 µM; in assay [3], 77.2 µM; in assay [4], > 100 µM.
